Measured values from patent US20190125702A1, “Methods and Compositions for the Treatment of Demyelinating Disorders” (Vitality Biopharma, Inc., priority 2016, published 2019).
“Also recorded” adds a separate entry of the source.

What was measured:
[1] = test system: E18 rat embryonic cortical co-cultures (MBP fiber length/Olig2 nuclei); assay: embryonic cortical cell co-culture myelination assay; format: cell-based; details: for EC50: Rattus norvegicus, 192 h, cortical myelination assay, eight days treatment, N >= 2; for myelination in the cortical myelination assay (in words): compound added DIV5, eight days, live axons
Source text: Embryonic Cortical Culture Methods: The dissection of E18 rat (Charles River, Wilmington, Mass., USA) cortex is similar to that described previously, [32], [33] with some modifications. Briefly whole cortices from three embryos were collected in a petri dish containing HBSS. After carefully removing the meninges, the tissue was divided into cortical hemispheres, dissected and the non-cortical structures were removed. Cortical tissue was then digested in 7 U/ml papain dissolved in HBSS with 500 U/ml DNase I, and incubated for 30 minutes at 35° C. The enzymatic reaction was terminated with DMEM containing 10% FBS. The tissue was allowed to settle, supernatant was removed and tissue was triturated with a flame-polished glass Pasteur pipette in DMEM/10% FBS, 250 U/ml DNAse I until the tissue was completely dispersed. The dissociated cell suspension was centrifuged at 200×g for 5 minutes and supernatant replaced with plating medium (NB medium with 1× N21 supplement and 2 mM L-glutamine and 1% penicillin-streptomycin). […] Isolated cells were seeded onto 96-well plates pre-coated with poly-D-lysine (10 μg/m1) and laminin (2 ␣/ml) at a density of 20,000 cells/well ([…]). Neurons were allowed to adhere, recover, mature and extend axons for three days. On the fourth day, the plating medium was diluted with an equivolume of myelination medium (MyM), as described in Watkins et al., 2008 [9] with minor modifications (see results). The following day, two-thirds of the medium was replaced with fresh MyM and test compound. The day after establishing the primary culture was defined as day 1 in vitro (DIV1).
Immunofluorescence Staining and Imaging: At the experimental end point, medium was removed leaving 50 μl/well using an ELX405 microplate washer (BioTek, Winooski, Vt., USA). Cells were then fixed for 14 min with paraformaldehyde solution to a final concentration of 4%. Following fixation, plates were washed with 1 ml PBS leaving 50 μl/well using the microplate washer. Cells were then blocked in blocking buffer (10% normal goat serum, 0.1% Triton X-100, antibody buffer (150 mM NaCl, 50 mM Tris Base, 1% BSA, 100 mM L-lysine, 0.004% sodium azide, pH 7.4), and stained with mouse anti-rat MBP antibody and anti-rabbit Olig2 diluted in blocking buffer overnight at 4° C. The cells were washed and incubated with secondary antibodies, and DAPI, 0.3 μM for 1 h at room temperature. After a final wash, 100 μl of PBS was added to each well and plates imaged. Images were captured with a Nikon Eclipse TE-2000-U microscope, Zyla cMOS megapixel camera (ANDOR Technology, Belfast, UK), fitted with an automated stage controlled by NIS Elements AR software 4.0 (Melville, N.Y., USA). An air 10× lens was used to capture four images per well with 16 bit resolution, 2560×2160 pixels. Images for each assay run were captured using identical camera settings. Images were exported as TIFF files for analysis and quantification.
Image Quantification: TIFF files were analyzed using a custom algorithm created with IN Cell Investigator Developer Toolbox (GE Health Sciences, Piscataway, N.J., USA). For each well, four images were analyzed and the data from the duplicate well combined and averaged (total of eight images per test condition). The extent of OL differentiation was defined by the total threshold-selected area of MBP staining×MBP fluorescence intensity in this area divided by the total number of OLs (identified by Olig2 nuclear staining). We referred to this as the “MBP score” or “OL differentiation”. Earlier publications have characterized in vitro myelination as contiguous segments of MBP staining co-localizing with axons, representing the contact and ensheathment of axons with the myelin membrane generated by OLs.

[2] = test system: purified OPCs from P7 Sprague-Dawley rat pups; assay: acute oligodendrocyte differentiation assay with acutely purified OPCs; format: cell-based; details: 4 days culture, MBP staining intensity
Experimental: Acute Oligodendrocyte Differentiation Assay: OPCs from P7 Sprague-Dawley rat pups were purified by immunopanning and cultured as described. OPCs were plated at 5000 cells/well into pDL-Laminin coated 96-well TC plate wells and centrifuged at 200×g to facilitate cell attachment, survival, and assure even distribution of OPCs. Plated OPCs were pre-incubated for 1-2 hours at 37° C. in 10% CO2 incubator, followed by addition of test compounds in quadruplicate. Controls were added in eight replicate wells, negative control=0.1% DMSO final concentration; positive control=40 ng/ml T3. The day of OPC plating was considered DIV0. On DIV4, cells were fixed, immunostained, and imaged as described below. Minor modifications include blocking cells with 10% normal goat serum (NGS)/0.4% Triton X-100 and staining overnight at 4° C. with rat anti-MBP antibodies diluted in 10% NGS/0.08% Triton X-100. OL differentiation was quantified by IN Cell Developer Toolbox image analysis software which calculated the MBP staining intensity of two images per well. The extent of OL differentiation was defined by the total threshold-selected area of MBP staining×MBP fluorescence intensity in this area divided by the total number of OLs (identified by DAPI nuclear staining).

purified OPCs = details: lead compounds of published studies [2],[3],[4]; cited from earlier work

SMILES | EC50 [1] [µM] | myelination in the cortical myelination assay (in words) [1] | also measured
N=C(N)NC(=O)c1nc(Cl)c(N)nc1N [Amiloride] | 8.9 | – | –
C[C@H]1[C@H](OC(=O)CCC(=O)O)O[C@@H]2O[C@@]3(C)CC[C@H]4[C@H](C)CC[C@@H]1[C@@]24OO3 [Artesunate] | 3.3 | – | –
COc1ccc(CC2c3cc(OC)c(OC)cc3CC[N+]2(C)CCC(=O)OCCCCCOC(=O)CC[N+]2(C)CCc3cc(OC)c(OC)cc3C2Cc2ccc(OC)c(OC)c2)cc1OC (stereo not shown) [Atracurium Besylate] | 5.3 | – | –
NC(=O)[C@@H](CCC(F)(F)F)N(Cc1ccc(-c2ncon2)cc1F)S(=O)(=O)c1ccc(Cl)cc1 [BMS 708, 163] | 0.067 | – | –
C[C@H](NC(=O)Cc1cc(F)cc(F)c1)C(=O)N[C@H](C(=O)OC(C)(C)C)c1ccccc1 [DAPT, N-[N-(3,5-Difluorophenacetyl)-L-alanyl]-S-phenylglycine t-butyl ester] | – | significant dose-dependent increases in myelination | reduction of the number of Olig2+ cells [1]: ~50%; DAPT/DMSO myelination ratio ([1]; 5 days NB/N21 and 8 days MyM plus test compound): 7.7; fiber/MBP score, typically observed ([1]; DAPT treated cultures): > 1.5; promotion of myelination, fold over DMSO ([1]; cultures without exogenously added OPCs): 1.76 fold over DMSO; average DAPT/DMSO Fiber/MBP ratio ([1]; entire NCC library screen, plate controls): 1.61
C[C@H]1O[C@@H](O[C@H]2[C@@H](O)C[C@H](O[C@H]3[C@@H](O)C[C@H](O[C@H]4CC[C@@]5(C)[C@H](CC[C@@H]6[C@@H]5C[C@@H](O)[C@]5(C)[C@@H](C7=CC(=O)OC7)CC[C@]65O)C4)O[C@@H]3C)O[C@@H]2C)C[C@H](O)[C@@H]1O [Digoxin] | 11.3 | – | –
CC(=O)O[C@@]12CO[C@@H]1C[C@H](O)[C@@]1(C)C(=O)[C@H](O)C3=C(C)[C@@H](OC(=O)[C@H](O)[C@@H](NC(=O)OC(C)(C)C)c4ccccc4)C[C@@](O)([C@@H](OC(=O)c4ccccc4)[C@H]21)C3(C)C [Docetaxel] | 0.1 | – | –
O=S(=O)(NC1CCC(c2cc(F)ccc2F)(S(=O)(=O)c2ccc(Cl)cc2)CC1)C(F)(F)F (stereo not shown) [MRK 560] | 0.082 | – | –
CN(Cc1cnc2nc(N)nc(N)c2n1)c1ccc(C(=O)N[C@@H](CCC(=O)O)C(=O)O)cc1 [Methotrexate] | 0.1 | – | Olig2+ nuclei expression (in words) ([1]; NCC library screen): very low overall Olig2+ nuclei expression
NC(=O)N1c2ccccc2CC(=O)c2ccccc21 [Oxcarbazepine] | 14.7 | – | –
O=c1[nH]c(=O)n(C2CCCO2)cc1F (stereo not shown) [Tegafur] | 2.7 | – | –
COc1cc(CNC(=O)CCCC/C=C\C(C)C)ccc1O [Zu-capsaicin] | 4.7 | – | –
CN1[C@@H]2CC[C@H]1C[C@@H](OC(c1ccccc1)c1ccccc1)C2 [benztropine] | – | little to no activity; also recorded: no effect on myelination; also recorded: did not promote myelination | OL differentiation of purified OPCs (in words) [2]: facilitate OL differentiation; also recorded: significant OL differentiation; OL differentiation in cultures of purified OPCs (published screens) (purified OPCs): facilitate OL differentiation
CN1CCC[C@@H]1CCO[C@](C)(c1ccccc1)c1ccc(Cl)cc1 [clemastine] | – | little to no activity; also recorded: no effect on myelination; also recorded: did not promote myelination | OL differentiation of purified OPCs (in words) [2]: facilitate OL differentiation; also recorded: significant OL differentiation; OL differentiation in cultures of purified OPCs (published screens) (purified OPCs): facilitate OL differentiation
C[C@H]1C[C@H]2[C@@H]3CCC4=CC(=O)C=C[C@]4(C)[C@@]3(F)[C@@H](O)C[C@]2(C)[C@@]1(O)C(=O)CCl [clobetasol] | – | no effect on myelination | OL differentiation in cultures of purified OPCs (published screens) (purified OPCs): facilitate OL differentiation
Clc1ccc(COC(Cn2ccnc2)c2ccc(Cl)cc2Cl)c(Cl)c1 (stereo not shown) [miconazole] | – | no effect on myelination | OL differentiation in cultures of purified OPCs (published screens) (purified OPCs): facilitate OL differentiation
